According to patent US20240180898A1, “USE OF AMINOTHIAZOLE DERIVATIVE IN TREATMENT OF IMMUNE INFLAMMATION” (INNAMUNE PHARMACEUTICAL CO. LTD., priority 2021, published 2024):

Assays:
heart grafts = assay: allogeneic heart transplantation, Balb/c to B6; type: in vivo, mouse
Text: The paired mice for transplantation: The donor mouse is a balb/c mouse; The recipient mouse is B6 mouse. Transplant the donor's skin or heart separately to the recipient. After skin transplantation, INNA1605 (TJ-M2010-5) was continuously used for 2 weeks and then stopped. About 38% of the transplanted skin was permanently non-rejection. After administering TJ-M2010-5 for two weeks after allogeneic heart transplantation, 60% of the heart grafts were permanently not rejected. In these surviving recipient mice (non-rejection), the hearts of the same donor mice were transplanted for a second time without any treatment. The result was 100% non-rejection of the heart, confirming the development of immune tolerance against the same antigen (see FIGS. 34 and 35).

[1] = system: bone marrow derived macrophages; assay: bone marrow derived macrophage pyroptosis model (LPS + ATP); type: cell-based
Protocol: Preparation and grouping of bone marrow derived macrophage pyroptosis model:
Model preparation: After LPS (500 ng/ml) stimulation of bone marrow derived macrophages for 6 hours, ATP (5 mmol/L) stimulation for 2 hours, followed by cell collection and supernatant detection.
The experiment was divided into four groups, namely: • Control group (normal cell culture medium), • Model group (with LPS and ATP stimulation added to the culture medium), • TJ-5 (10 μmol/L) group (2 hours before LPS stimulation, administer 10 μmol/L TJ-5 drug stimulation), • TJ-5 (30 μmol/L) group (2 hours before LPS stimulation, administer 30 μmol/L TJ-5 drug stimulation).
Collect cells and their supernatant for detection at the endpoint of the experiment.

[2] = drug concentration in blood after skin ointment on maximum body area; type: in vivo; conditions: skin ointments applied to the maximum body area
[3] = TJ-5 10 or 30 μmol/L before LPS + ATP

O=C(CCN1CCN(Cc2ccccc2)CC1)Nc1nc(-c2ccccc2)cs1 [INNA1605, 3-(4-benzylpiperazine-1-yl)-N-(4-phenylthiazole-2-yl) propionamide]
heart grafts permanently not rejected (heart grafts; administered for two weeks): 60%
non-rejection of second heart of the same donor mice (heart grafts; surviving recipient mice, second transplant without any treatment): 100%
apoptosis (PI+ cells) of bone marrow derived macrophages ([1]; TJ-5 10 or 30 μmol/L 2 hours before LPS 500 ng/ml 6 hours + ATP 5 mmol/L 2 hours): can inhibit the apoptosis of bone marrow derived macrophages induced by LPS and ATP
activation and cleavage of GSDMD [1, 3]: significantly inhibits the activation and cleavage of GSDMD
assembly and activation of NLRP3 inflammasomes [1, 3]: can block the assembly and activation of NLRP3 inflammasomes
classical and non classical cell pyroptosis pathways [1, 3]: inhibit both classical and non classical cell pyroptosis pathways
maturation and release of Pro-IL-1b and Pro-IL-18 [1, 3]: inhibiting the maturation and release
secretion of LDH in cell culture supernatant [1, 3]: reduce the secretion of LDH
secretion of various inflammatory factors [1, 3]: reducing the secretion of various inflammatory factors
drug concentration in the blood [2]: 2 to 3 ng/mL
